Among the data in patent US9573954B2, “Pyrazolopyrimidine compounds” (University Health Network, priority 2012, dated 2017) are GI50 and IC50 values, retold here.

Where two headings read alike, the source gives them in different places. Some results are limits rather than exact numbers.

Assay [1] relates to ovarian cancer cells (OVCAR-3). Kind of assay: Cancer cell line growth inhibition, Sulforhodamine B assay, OVCAR-3. In kind it is cell-based. As to conditions: Homo sapiens, OVCAR-3, OVCAR-3 ovarian cancer cell line; read-out: Cancer Cell Line GI50 Range OVCAR-3. In outline:
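OVCAR-3 cells were seeded 24 h before compound addition, then exposed for 5 days to final concentrations of 10 nM to 50 μM in DMEM with 10% FBS. Growth was measured by TCA fixation and sulforhodamine B staining with absorbance at 570 nm. Inhibition was relative to DMSO-only cells, and GI50 came from curve fitting.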

For assay [2], the system named is Ovarian 2393A tumor initiating cells. The experiment in a line: Tumor-initiating cell growth inhibition, Alamar Blue assay, ovarian TICs. The class given is cell-based. The settings on record: 144 h; Ovarian 2393A TICs, 6 days; read-out: Tumor Initiating Cell GI50 Range Ovarian 2393A. The text has this:
(§1) Non-tissue or tissue cultured treated T-75 flask and 96-well plates were purchased from VWR. Vitamin B-27 supplement, MEM NEAA (minimum essential medium non essential amino acids), sodium pyruvate, L-glutamine, N2 supplement, penicillin-streptomycin and fungizone/amphotericin B were obtained from Invitrogen. Lipid mixture, heparin and EGF were purchased from Sigma; bFGF from BD Biosciences. Tumor Initiating Cells (TICs) from colon were routinely maintained using non-tissue cultured treated T-75 flasks in DMEM:F12 medium containing 0.2XB-27 supplement, 4 ug/ml heparin, 1×MEM NEAA, 1×sodium pyruvate, 1 mM glutamine, 10 pg/ul bFGF, 20 pg/ul EGF, 1× N2 supplement, lipid mixture, penicillin-streptomycin and fungizone/amphotericin B. Ovarian TICs were routinely maintained using tissue cultured treated T-75 flasks in DMEM:F12 medium containing IXB-27 supplement, 4 ug/ml heparin, 20 pg/ul bFGF, 20 pg/ul EGF and penicillin-streptomycin.
(§2) Compounds described herein were dissolved in DMSO and further diluted in cell culture medium for GI50 determination. Colon TICs were trypsinized and seeded into non-tissue cultured treated 96-well plates with 4,000 cells/well. After 24 h, compound was added into the cell culture at different concentrations, and the final concentration of DMSO was adjusted to 0.1%. Cells were then cultured at 37° C. for 9 days. Ovarian TICs were trypsinized and seeded into tissue cultured treated 96-well plates with 1,000 cells/well. After 24 h, compound was added into the cell culture at different concentrations, and the final concentration of DMSO was adjusted to 0.1%. Cells were then cultured at 37° C. for 6 days. Cell viability was assessed by Alamar Blue assay: 10 ul of Alamar Blue was added into each well. After 4 hours incubation at 37° C., fluorescence was recorded at excitation 544 and emission 590. GI50 (Growth inhibition) was calculated using GraphPad Prism 4.0 software.
(§3) In Table 1 below, GI50 value ranges for compound examples against TICs (Colon 12 and Ovarian 2393A) are given.
A general note: Alamar Blue is a resazurin reagent that responds to reducing activity.

The test system of assay [3] is Colon 12 tumor initiating cells. Kind of assay: Tumor-initiating cell growth inhibition, Alamar Blue assay, colon TICs. The settings on record: 216 h; Colon 12 TICs, 9 days; read-out: Tumor Initiating Cell GI50 Range Colon 12. The class given is cell-based.
Description: as §1, §2, §3

Assay [4] deals with T1, human TTK (Homo sapiens, UniProt P33981).
T1 construct: Active TTK was purchased from Invitrogen as an amino terminal GST fusion of full length human TTK; purchased Invitrogen
T1 sequence (P33981 1-857): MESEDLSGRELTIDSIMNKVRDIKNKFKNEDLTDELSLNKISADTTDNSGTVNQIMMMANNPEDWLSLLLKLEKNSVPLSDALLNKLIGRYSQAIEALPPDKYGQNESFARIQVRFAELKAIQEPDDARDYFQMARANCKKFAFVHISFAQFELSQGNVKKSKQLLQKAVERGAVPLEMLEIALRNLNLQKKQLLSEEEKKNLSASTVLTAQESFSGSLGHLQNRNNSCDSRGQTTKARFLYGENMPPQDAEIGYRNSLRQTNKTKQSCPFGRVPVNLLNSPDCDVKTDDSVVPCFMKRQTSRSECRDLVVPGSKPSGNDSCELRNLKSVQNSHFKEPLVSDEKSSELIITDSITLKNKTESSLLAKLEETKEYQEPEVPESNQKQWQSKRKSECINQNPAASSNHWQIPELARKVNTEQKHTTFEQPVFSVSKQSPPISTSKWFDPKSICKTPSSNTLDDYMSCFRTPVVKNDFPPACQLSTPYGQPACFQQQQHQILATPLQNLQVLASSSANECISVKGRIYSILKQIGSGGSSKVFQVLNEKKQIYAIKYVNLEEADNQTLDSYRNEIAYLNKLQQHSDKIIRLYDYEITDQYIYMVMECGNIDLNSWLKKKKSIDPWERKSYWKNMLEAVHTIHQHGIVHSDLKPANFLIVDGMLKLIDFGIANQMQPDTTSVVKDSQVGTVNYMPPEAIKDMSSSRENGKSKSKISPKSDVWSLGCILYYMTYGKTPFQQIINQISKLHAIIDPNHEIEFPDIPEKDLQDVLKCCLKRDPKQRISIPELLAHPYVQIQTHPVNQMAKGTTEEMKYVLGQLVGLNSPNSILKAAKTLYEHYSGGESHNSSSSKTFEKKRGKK
Kind of assay: TTK inhibition assay (indirect ELISA). The class given is biochemical. In outline: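 Activity detected by indirect ELISA after compounds sat with full-length GST-TTK for 5 min prior to starting the reaction with ATP. IC50 came from a four-parameter logistic curve of % inhibition, calculated against background and uninhibited control wells.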
Background: An ELISA detects its analyte on a solid surface through an enzyme-linked reagent.

The subject of assay [5] is colon cancer cells (HCT116). Kind of assay: Cancer cell line growth inhibition, Sulforhodamine B assay, HCT116. The class given is cell-based. As to conditions: Homo sapiens, HCT-116, HCT116 colon cancer cell line; read-out: Cancer Cell Line GI50 Range HCT116. The gist of the method: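 GI50 is calculated from growth inhibition relative to DMSO controls, using TCA-fixed, SRB-stained protein mass read at 570 nm. Compound, 10 nM–50 μM final in 10% FBS DMEM, was applied for 5 days to HCT116 cells that had been plated 24 h before at 1000–4000/well.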

The test system of assay [6] is breast cancer cells (MDA-MB-468). The experiment in a line: Cancer cell line growth inhibition, Sulforhodamine B assay, MDA-MB-468. In kind it is cell-based. The settings on record: Homo sapiens, MDA-MB-468, MDA-MB-468 breast cancer cell line; read-out: Cancer Cell Line GI50 Range MDA-MB-468. The gist of the method:
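Sulforhodamine B staining (TCA-fixed, read at 570 nm) estimates cell mass after 5-day compound treatment of MDA-MB-468 cells, final concentrations 10 nM to 50 μM in 10% FBS DMEM. GI50 derived from growth inhibition versus DMSO controls.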

Where [7] appears, read: 100 μM ATP, read-out: TTK IC50 Range.
[8] abbreviates: 16 μM ATP (Sigma cat# A7699), read-out: TTK IC50 Range (denoted with an asterisk).

A word on the GI50: it is the concentration at which growth is held to half of that of the control. As a reminder, the IC50 is the midpoint of a concentration-inhibition curve. For `Cc1cc(-c2cnn3c(NCC4COC4)cc(Oc4cccnc4)nc23)ccc1C(=O)NC1CC1` [Example C100], the 50% growth inhibitory concentration (GI50) was 100 to 500 nM in assay [1]; ≤ 100 nM in assay [2]; ≤ 100 nM in assay [3]; 100 to 500 nM in assay [5]; 100 to 500 nM in assay [6]. For the same compound, in assay [4] (setting [7]), the half-inhibitory concentration (IC50) is < 100 nM.

Regarding `Cc1cc(-c2cnn3c(NCC4(F)CCN(C)CC4)cc(Oc4cccc(F)c4)nc23)ccc1C(=O)NC1CC1` [Example C28], the GI50 in assay [1], in assay [2], in assay [3], in assay [5] and in assay [6] was ≤ 100 nM in each case. In assay [4] (setting [7]), the IC50 was < 100 nM.

Take `Cc1cc(-c2cnn3c(NCC4CCOCC4)nc(Oc4ccccc4F)nc23)ccc1C(=O)NC1CC1` [Example C20]: the GI50 is 100 to 500 nM in assay [1]; 100 to 500 nM in assay [2]; ≤ 100 nM in assay [3]; ≤ 100 nM in assay [5]; 100 to 500 nM in assay [6]. Also, the IC50 in assay [4] (setting [8]) is < 100 nM.

Regarding `COc1ccc(Oc2nc(NCC3CCOCC3)n3ncc(-c4ccc(C(=O)NC5CC5)c(C)c4)c3n2)c(F)c1` [Example C25], the GI50 was 100 to 500 nM in assay [1]; 100 to 500 nM in assay [2]; ≤ 100 nM in assay [3]; ≤ 100 nM in assay [5]; 100 to 500 nM in assay [6]. Further, the IC50 in assay [4] (setting [8]) is < 100 nM.

For the compound `Cc1cc(-c2cnn3c(NCC4CCOCC4)nc(Oc4cccc(F)c4)nc23)ccc1C(=O)NC1CC1` [Example C21], the 50% growth inhibitory concentration (GI50) in assay [1], in assay [2], in assay [3], in assay [5] and in assay [6] was ≤ 100 nM each time. In addition, in assay [4] (setting [8]), the half-inhibitory concentration (IC50) is < 100 nM.

In the case of `Cc1cc(-c2cnn3c(NCC4CCOCC4)cc(N[C@H]4CCCC[C@H]4O)nc23)ccc1C(=O)NC1CC1` [Example C39, N-cyclopropyl-4-(5-(((1S,2R)-2-hydroxycyclohexyl)amino)-7-(((tetrahydro-2H-pyran-4-yl)methyl)amino)pyrazolo[1,5-a]pyrimidin-3-yl)-2-methylbenzamide], the concentration for 50% growth inhibition (GI50) in assay [1], in assay [2], in assay [3], in assay [5] and in assay [6] was ≤ 100 nM each time. Further, the 50% inhibitory concentration (IC50) in assay [4] (setting [7]) is < 100 nM.

For the compound `Cc1cc(-c2cnn3c(NCCN(C)C)cc(Oc4cccc(F)c4)nc23)ccc1C(=O)NC1CC1` [Example C187], the GI50 is 100 to 500 nM in assay [1]; ≤ 100 nM in assay [2]; ≤ 100 nM in assay [3]; ≤ 100 nM in assay [5]; ≤ 100 nM in assay [6]. In assay [4] (setting [7]), the half-inhibitory concentration (IC50) is < 100 nM.

As to `Cc1cc(-c2cnn3c(NCC4CCOCC4)cc(N[C@H](CO)C(C)C)nc23)ccc1C(=O)NC1CC1` [Example C38, (S)-N-cyclopropyl-4-(5-((1-hydroxy-3-methylbutan-2-yl)amino)-7-(((tetrahydro-2H-pyran-4-yl)methyl)amino)pyrazolo[1,5-a]pyrimidin-3-yl)-2-methylbenzamide], the GI50 in assay [1], in assay [2], in assay [3], in assay [5] and in assay [6] was ≤ 100 nM in each case. In addition, the IC50 in assay [4] (setting [7]) is < 100 nM.

`Cc1cc(-c2cnn3c(NCC4CC4)cc(N[C@H]4CCCC[C@H]4O)nc23)ccc1C(=O)NC1CC1` [Example C42, N-cyclopropyl-4-(7-((cyclopropylmethyl)amino)-5-(((1S,2R)-2-hydroxycyclohexyl)amino)pyrazolo[1,5-a]pyrimidin-3-yl)-2-methylbenzamide]: the concentration for 50% growth inhibition (GI50) in assay [1], in assay [2], in assay [3], in assay [5] and in assay [6] was ≤ 100 nM each time. Moreover, the half-inhibitory concentration (IC50) in assay [4] (setting [7]) was < 100 nM.

For the compound `Cc1cc(-c2cnn3c(NCCN4CCOCC4)cc(Oc4cccc(F)c4)nc23)ccc1C(=O)NC1CC1` [Example C31, N-cyclopropyl-4-(5-(3-fluorophenoxy)-7-((2-morpholinoethyl)amino)pyrazolo[1,5-a]pyrimidin-3-yl)-2-methylbenzamide], the concentration for 50% growth inhibition (GI50) in assay [1], in assay [2], in assay [3], in assay [5] and in assay [6] was ≤ 100 nM in each case. For the same compound, the IC50 in assay [4] (setting [7]) was < 100 nM.

Consider `Cc1cc(-c2cnn3c(NCC4CCOCC4)cc(NC4(CO)CCCC4)nc23)ccc1C(=O)NC1CC1` [Example C45], for which the 50% growth inhibitory concentration (GI50) is ≤ 100 nM in assay [1]; 100 to 500 nM in assay [2]; ≤ 100 nM in assay [3]; ≤ 100 nM in assay [5]; ≤ 100 nM in assay [6]. Further, the concentration for half-maximal inhibition (IC50) in assay [4] (setting [7]) is < 100 nM.

On to `Cc1cc(-c2cnn3c(NCC4CCOCC4)nc(Nc4ccccc4)nc23)ccc1C(=O)NC1CC1` [Example C10], for which the concentration for 50% growth inhibition (GI50) in assay [1], in assay [2], in assay [3], in assay [5] and in assay [6] was > 500 nM throughout. Also, the 50% inhibitory concentration (IC50) in assay [4] (setting [8]) was < 100 nM.

As to `Cc1cc(-c2cnn3c(NCC4CCN(C)CC4)cc(Oc4cccc(F)c4)nc23)ccc1C(=O)NC1CC1` [Example C46, N-cyclopropyl-4-(5-(3-fluorophenoxy)-7-(((1-methylpiperidin-4-yl)methyl)amino)pyrazolo[1,5-a]pyrimidin-3-yl)-2-methylbenzamide], the concentration for 50% growth inhibition (GI50) in assay [1] was 100 to 500 nM; in assay [2] it was ≤ 100 nM; in assay [3] it was ≤ 100 nM; in assay [5], ≤ 100 nM; in assay [6] it was ≤ 100 nM. Also, in assay [4] (setting [7]), the IC50 is < 100 nM.

With `Cc1cc(-c2cnn3c(NCC4CCOCC4)cc(N[C@H]4CC[C@H](O)CC4)nc23)ccc1C(=O)NC1CC1` [Example C48], the GI50 in assay [1], in assay [2], in assay [3], in assay [5] and in assay [6] was 100 to 500 nM throughout. In assay [4] (setting [7]), the IC50 is < 100 nM.
